Results from patent publication US10611750B2, “Tetrahydroquinoline compositions as bet bromodomain inhibitors” (FORMA Therapeutics, Inc., priority 2013, dated 2020).

Legend:
[1] = target: T1, BRD4 Bromodomain 1 (BRD4 BD1) (Homo sapiens, UniProt O60885); assay: AlphaScreen binding assay, BRD4 BD1; settings: His-tagged BRD4 BD1 50 nM, biotinylated H4 (1-21) K5/8/12/16 tetra-acetylated peptide 50 nM, compounds listed under IC50 range headings
T1 construct: 44-168 and BRD4 BD2
Outline: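 Compound dilution series were mixed with His-tagged BRD4 bromodomain and biotinylated tetra-acetylated H4 (1-21) peptide at pH 7.3 (BD1 and peptide at 50 nM, BD2 and peptide at 100 nM). Donor and acceptor beads were then added, and plates were equilibrated at least 1 h before reading. IC50 values were fitted with a four-parameter logistic model.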

[2] = target: T2, BRD4 Bromodomain 2 (BRD4 BD2) (Homo sapiens, UniProt O60885); assay: AlphaScreen binding assay, BRD4 BD2; settings: His-tagged BRD4 BD2 100 nM, biotinylated H4 (1-21) K5/8/12/16 tetra-acetylated peptide 100 nM, compounds listed under IC50 range headings
T2 construct: 333-460 were cloned, expressed, and purified to homogeneity
Description: The binding of Example compounds to BRD4 Bromodomain 1 and BRD4 Bromodomain 2 was assessed using 384-well AlphaScreen assay technology. His-epitope tagged BRD4 BD144-168 and BRD4 BD2333-460 were cloned, expressed, and purified to homogeneity. BRD4 BD1 and BRD4 BD2 binding and inhibition was assessed by monitoring the engagement of biotinylated Histone H4 (1-21) K5/8/12/16 tetra-acetylated peptide with the targets using the AlphaScreen technology (PerkinElmer). Specifically, in a 384-well black or white flat bottom plate, BRD4 BD1 (50 nM final) or BRD4 BD2 (100 nM final) was combined with peptide (50 nM final for BD1 or 100 nM final for BD2) in 50 mM HEPES (pH 7.3), 100 mM NaCl, 0.1% (w/v) BSA, and 0.01% (w/v) Triton X-100 either in the presence of DMSO (final 1.25% DMSO) or compound dilution series in DMSO. Alpha streptavidin donor beads and Nickel-chelate acceptor beads were added to a final concentration of 10 μg/ml each. After a minimum of 1 hour equilibration, plates were read on a BMG PHERAstar FS multi-label reader (BMG LabTech). The half maximal inhibitory concentration (IC50) values were calculated using IDBS Activity Base software with a four parameter logistic curve fit by the equation y=A+((B−A)/(1+((C/x)^D))), wherein A denotes the bottom plateau of the curve, B denotes the top plateau of the curve, C denotes the x value at the middle of the curve, D denotes the slope factor, x denotes the original known x values, and y denotes the original known y values. Data was fitted using the Levenburg Marquardt algorithm.

IC50 [1] | IC50 [2] | Structure (SMILES)
≥ 10000 nM | ≥ 500 nM | COC(=O)N1c2ccc(-c3cnn(C4CC4)c3)c(OCC(F)(F)F)c2CC[C@@H]1C [I-9, (S)-methyl 6-(1-cyclopropyl-1H-pyrazol-4-yl)-2-methyl-5-(2,2,2-trifluoroethoxy)-3,4-dihydroquinoline-1(2H)-carboxylate]
1000 to 10000 nM | 50 to 500 nM | COC(=O)N1c2ccc(-c3cnn(C4CC4)c3)c(OCC(F)F)c2CC[C@@H]1C [I-10, (S)-methyl 6-(1-cyclopropyl-1H-pyrazol-4-yl)-5-(2,2-difluoroethoxy)-2-methyl-3,4-dihydroquinoline-1(2H)-carboxylate]
≥ 10000 nM | ≥ 500 nM | COC(=O)N1c2ccc(-c3cnn(C4CC4)c3)c(OCC(C)(F)F)c2CC[C@@H]1C [I-12, (S)-methyl 6-(1-cyclopropyl-1H-pyrazol-4-yl)-5-(2,2-difluoropropoxy)-2-methyl-3,4-dihydroquinoline-1(2H)-carboxylate]
1000 to 10000 nM | 50 to 500 nM | COC(=O)N1c2ccc(-c3cnn(C4CC4)c3)c(OC(CF)CF)c2CC[C@@H]1C [I-15, (S)-methyl 6-(1-cyclopropyl-1H-pyrazol-4-yl)-5-(1,3-difluoropropan-2-yloxy)-2-methyl-3,4-dihydroquinoline-1(2H)-carboxylate]
1000 to 10000 nM | 50 to 500 nM | COC(=O)N1c2ccc(-c3cnn(C4CC4)c3)c(OCC(C)(C)F)c2CC[C@@H]1C [I-16, (S)-methyl 6-(1-cyclopropyl-1H-pyrazol-4-yl)-5-(2-fluoro-2-methylpropoxy)-2-methyl-3,4-dihydroquinoline-1(2H)-carboxylate]
1000 to 10000 nM | 50 to 500 nM | COC(=O)N1c2ccc(-c3cnn(C4CC4)c3)c(OC(C)(C)C(N)=O)c2CC[C@@H]1C [I-18, (S)-methyl 5-(1-amino-2-methyl-1-oxopropan-2-yloxy)-6-(1-cyclopropyl-1H-pyrazol-4-yl)-2-methyl-3,4-dihydroquinoline-1(2H)-carboxylate]
≥ 10000 nM | 50 to 500 nM | CCNC(=O)COc1c(-c2cnn(C3CC3)c2)ccc2c1CC[C@H](C)N2C(=O)OC [I-21, (S)-methyl 6-(1-cyclopropyl-1H-pyrazol-4-yl)-5-(2-(ethylamino)-2-oxoethoxy)-2-methyl-3,4-dihydroquinoline-1(2H)-carboxylate]
1000 to 10000 nM | 50 to 500 nM | COC(=O)N1c2ccc(-c3cnn(C4CC4)c3)c(OCCN3CCCC3=O)c2CC[C@@H]1C [I-25, (S)-methyl 6-(1-cyclopropyl-1H-pyrazol-4-yl)-2-methyl-5-(2-(2-oxopyrrolidin-1-yl)ethoxy)-3,4-dihydroquinoline-1(2H)-carboxylate]
1000 to 10000 nM | 50 to 500 nM | COC(=O)N1c2ccc(-c3cnn(C4CC4)c3)c(OCC(=O)N3CCOCC3)c2CC[C@@H]1C [I-26, (S)-methyl 6-(1-cyclopropyl-1H-pyrazol-4-yl)-2-methyl-5-(2-morpholino-2-oxoethoxy)-3,4-dihydroquinoline-1(2H)-carboxylate]
1000 to 10000 nM | < 50 nM | COC(=O)N1c2ccc(-c3cnn(C4CC4)c3)c(OCCN3CCCS3(=O)=O)c2CC[C@@H]1C [I-27, methyl (2S)-6-(1-cyclopropyl-1H-pyrazol-4-yl)-5-[2-(1,1-dioxo-1λ^6,2-thiazolidin-2-yl)ethoxy]-2-methyl-1,2,3,4-tetrahydroquinoline-1-carboxylate]
1000 to 10000 nM | ≥ 500 nM | COC(=O)N1c2ccc(-c3cnn(C4CC4)c3)c(OCS(N)(=O)=O)c2CC[C@@H]1C [I-28, (S)-methyl 6-(1-cyclopropyl-1H-pyrazol-4-yl)-2-methyl-5-(sulfamoylmethoxy)-3,4-dihydroquinoline-1(2H)-carboxylate]
1000 to 10000 nM | 50 to 500 nM | COC(=O)N1c2ccc(-c3cnn(C4CC4)c3)c(OCC3(CO)COC3)c2CC[C@@H]1C [I-32, (S)-methyl 6-(1-cyclopropyl-1H-pyrazol-4-yl)-5-((3-(hydroxymethyl)oxetan-3-yl)methoxy)-2-methyl-3,4-dihydroquinoline-1(2H)-carboxylate]
1000 to 10000 nM | 50 to 500 nM | CC(=O)N1c2ccc(-c3cnn(C4CC4)c3)c(OCC(C)(F)F)c2CC[C@@H]1C [I-37, (S)-1-(6-(1-cyclopropyl-1H-pyrazol-4-yl)-5-(2,2-difluoropropoxy)-2-methyl-3,4-dihydroquinolin-1(2H)-yl)ethanone]
1000 to 10000 nM | 50 to 500 nM | CC(=O)N1c2ccc(-c3cnn(C4CC4)c3)c(OC(CF)CF)c2CC[C@@H]1C [I-38, (S)-1-(6-(1-cyclopropyl-1H-pyrazol-4-yl)-5-(1,3-difluoropropan-2-yloxy)-2-methyl-3,4-dihydroquinolin-1(2H)-yl)ethanone]
1000 to 10000 nM | 50 to 500 nM | CC(=O)N1c2ccc(-c3cnn(C4CC4)c3)c(OC(C)(C)C(N)=O)c2CC[C@@H]1C [I-40, (S)-2-(1-acetyl-6-(1-cyclopropyl-1H-pyrazol-4-yl)-2-methyl-1,2,3,4-tetrahydroquinolin-5-yloxy)-2-methylpropanamide]
1000 to 10000 nM | 50 to 500 nM | CC(=O)N1c2ccc(-c3cnn(C4CC4)c3)c(OCCC(F)(F)F)c2CC[C@@H]1C [I-41, (S)-1-(6-(1-cyclopropyl-1H-pyrazol-4-yl)-2-methyl-5-(3,3,3-trifluoropropoxy)-3,4-dihydroquinolin-1 (2H)-yl)ethanone]
≥ 10000 nM | ≥ 500 nM | CC(=O)N1c2ccc(-c3cnn(C4CC4)c3)c(OCS(N)(=O)=O)c2CC[C@@H]1C [I-45, (S)-(1-acetyl-6-(1-cyclopropyl-1H-pyrazol-4-yl)-2-methyl-1,2,3,4-tetrahydroquinolin-5-yloxy)methanesulfonamide]
1000 to 10000 nM | 50 to 500 nM | CC(=O)N1c2ccc(-c3cnn(C4CC4)c3)c(OCCC3COC3)c2CC[C@@H]1C [I-47, (S)-1-(6-(1-cyclopropyl-1H-pyrazol-4-yl)-2-methyl-5-(2-(oxetan-3-yl)ethoxy)-3,4-dihydroquinolin-1(2H)-yl)ethanone]
≥ 10000 nM | ≥ 500 nM | CC(=O)N1c2ccc(-c3cnn(C4CC4)c3)c(OCC3CNC3)c2CC[C@@H]1C [I-52, (S)-1-(5-(azetidin-3-ylmethoxy)-6-(1-cyclopropyl-1H-pyrazol-4-yl)-2-methyl-3,4-dihydroquinolin-1 (2H)-yl)ethanone]
1000 to 10000 nM | ≥ 500 nM | COC(=O)N1c2ccc(-c3cnn(C4CC4)c3)c(OC3CNC3)c2CC[C@@H]1C [I-59, (S)-methyl 5-(azetidin-3-yloxy)-6-(1-cyclopropyl-1H-pyrazol-4-yl)-2-methyl-3,4-dihydroquinoline-1(2H)-carboxylate]
1000 to 10000 nM | 50 to 500 nM | COC(=O)N1c2ccc(-c3cnn(C4CC4)c3)c(OCC3(F)COC3)c2CC[C@@H]1C [I-65, (S)-methyl 6-(1-cyclopropyl-1H-pyrazol-4-yl)-5-((3-fluorooxetan-3-yl)methoxy)-2-methyl-3,4-dihydroquinoline-1(2H)-carboxylate]
100 to 1000 nM | 50 to 500 nM | CC(=O)N1c2ccc(-c3cnn(C4COC4)c3)c(Oc3nc4ccccc4o3)c2CC[C@@H]1C [I-79, (S)-1-(5-(benzo[d]oxazol-2-yloxy)-2-methyl-6-(1-(oxetan-3-yl)-1H-pyrazol-4-yl)-3,4-dihydroquinolin-1(2H)-yl)ethanone]
1000 to 10000 nM | 50 to 500 nM | CC(=O)N1c2ccc(-c3cnn(C4CC4)c3)c(Oc3nccc(C(F)(F)F)n3)c2CC[C@@H]1C [I-85, (S)-1-(6-(1-cyclopropyl-1H-pyrazol-4-yl)-2-methyl-5-(4-(trifluoromethyl)pyrimidin-2-yloxy)-3,4-dihydroquinolin-1 (2H)-yl)ethanone]

Structure (SMILES) | IC50 [1] | IC50 [2]
COC(=O)N1c2ccc(-c3cnn(C4CC4)c3)c(OC3CC(F)(F)C3)c2CC[C@@H]1C [I-33, (S)-methyl 6-(1-cyclopropyl-1H-pyrazol-4-yl)-5-(3,3-difluorocyclobutoxy)-2-methyl-3,4-dihydroquinoline-1(2H)-carboxylate] | 1000 to 10000 nM | ≥ 500 nM
COC(=O)N1c2ccc(-c3cnn(C4CC4)c3)c(OC3CN(C(=O)OC(C)(C)C)C3)c2CC[C@@H]1C [I-58, (S)-methyl 5-(1-(tert-butoxycarbonyl)azetidin-3-yloxy)-6-(1-cyclopropyl-1H-pyrazol-4-yl)-2-methyl-3,4-dihydroquinoline-1(2H)-carboxylate] | ≥ 10000 nM | ≥ 500 nM
